Data set [1] has as its system Norovirus. The data set is described as follows: Norovirus tests. Type of data set: cell-based. To be noted: one of the Norovirus tests; read-out: ECso. The text has this:
(§1) It is important to understand that mycophenolic acid's anti-viral effect is likely to require a small fraction (about 1-2% or less) of the clinical dose which is approved and commonly used for prevention of transplant rejection. For instance, Chan et al., 2013, p. […] For instance, in one of the Norovirus tests we document here, ECso of 0.151 mcg/mL was reported. Even less mycophenolic acid would be needed to treat viruses such as Influenza A HNI and RSV in which we report ECso <0.10 mcg/ml. Dramatically lower doses may suffice for mycophenolic acid. Therefore, it is not only possible to achieve adequate body levels of mycophenolic acid to treat these viruses clinically, but also a small fraction of the current clinical dose may be more than adequate. To et al, 2016 also presented data on page 1812 supporting these conclusions.

The test system of data set [2] is avian-origin influenza A (H7N9). To be noted: To et al. (2016); cited from earlier work.
In data set [3] the test system is seasonal influenza A(H3N2) virus. The note with it: To et al. (2016); cited from earlier work.
Data set [4] deals with Influenza A(H1N1) strain A/WSN/1933. To be noted: Chan et al. (2013); cited from earlier work.
Data set [5] concerns virus. To be noted: cited from earlier work.
For data set [6], the system named is RSV. Put plainly: antiviral EC50 against RSV. Type of data set: cell-based. To be noted: human respiratory syncytial virus, read-out: ECso.
Source text: as §1

For data set [7], the system named is Influenza A HNI. The data set is described as follows: antiviral EC50 against Influenza A. Type of data set: cell-based. To be noted: Influenza A virus, read-out: ECso.
Data set [8] relates to pandemic flu H/415, A/Hong Kong/415742/2009, A(HINI)pdm09. To be noted: To et al. (2016); cited from earlier work.
Data set [9] concerns MERS coronavirus. To be noted: MERS coronavirus patients; cited from earlier work.

Each structure is given as a SMILES string. Values after ≈ are worked out from the molar mass of the structure shown.

On to `COc1c(C)c2c(c(O)c1C/C=C(\C)CCC(=O)O)C(=O)OC2` [mycophenolic acid, 6-(4-hydroxy-6-methoxy-7-methyl-3-oxo-1,3-dihydroisobenzofuran-5-yl)-4-methyl-hex-4-enoic acid], for which the results for the EC50 in data set [1], in data set [6] and in [7] were 0.151 µg/mL (≈ 0.471 µM), below 0.1 µg/mL and below 0.1 µg/mL, respectively. Besides, the effectiveness against virus result in data set [2] was “effective”; in data set [3], “effective”; in data set [4] it was “effectiveness”; in [8], “effective”. Also, the EC so in [5] (Chan et al., 2013, p. 612) is 0.17 µg/mL. Moreover, the “local concentrations at usual clinical doses, greater than needed” value in data set [5] (usual clinical doses of mycophenolic acid, Chan et al., 2013) was 60-300 ×.

For the molecule `COc1c(C)c2c(c(O)c1C/C=C(\C)CCC(=O)OCCN1CCOCC1)C(=O)OC2` [mycophenolate mofetil, 2-morpholinoethyl ester of mycophenolic acid], the mortality result in data set [9] is on record as “no mortality”.

The values are drawn from patent publication US20250161262A1, “Pharmaceutical Compositions and Methods for Treating Covid” (priority 2022, published 2025).
